The assay addresses T1, human M1 receptor (Homo sapiens, UniProt P11229).
T1 sequence (P11229 1-460): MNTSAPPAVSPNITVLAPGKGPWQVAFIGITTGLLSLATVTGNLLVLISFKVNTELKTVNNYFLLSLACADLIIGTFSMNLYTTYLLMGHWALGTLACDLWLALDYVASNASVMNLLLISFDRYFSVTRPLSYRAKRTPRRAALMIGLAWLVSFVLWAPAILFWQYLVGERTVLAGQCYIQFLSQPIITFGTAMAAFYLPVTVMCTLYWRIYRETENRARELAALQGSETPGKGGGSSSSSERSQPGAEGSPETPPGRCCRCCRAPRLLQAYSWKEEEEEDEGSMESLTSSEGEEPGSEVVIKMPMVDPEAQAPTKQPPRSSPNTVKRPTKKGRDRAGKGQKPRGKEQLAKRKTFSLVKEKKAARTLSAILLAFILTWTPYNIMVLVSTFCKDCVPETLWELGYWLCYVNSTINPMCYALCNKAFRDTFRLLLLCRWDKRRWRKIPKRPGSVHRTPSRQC
The assay is described as follows: In vitro functional assay of muscarinic acetylcholine receptor activity (aequorin calcium flux, reversal of EC80 acetylcholine response). Type of assay: cell-based. The settings on record: CHO-K1 cells stably expressing human M1 receptor with aequorin; acetylcholine at EC80; calcium flux (luminescence); read-out: M1 IC50. The method in brief: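 CHO-K1 cells expressing human M1 and aequorin, loaded with 5 μM coelenterazine for 4 h, preincubated with compound 30 min at room temperature, then challenged with EC80 acetylcholine.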
(Calcium flux is commonly read through the fluorescence of an indicator in the cells.)

The structures appear in SMILES notation. Bounds are passed on as bounds.

Consider `CC(NCC(=O)N1CC2CCC(C1)N2c1ccc(C#N)cn1)c1ccc(F)cc1F` (stereo in doubt) [Example 88, 6-(3-(((S)-1-(2,4-difluorophenyl)ethyl)glycyl)-3,8-diazabicyclo[3.2.1]octan-8-yl)nicotinonitrile], for which the IC50 (in general, the midpoint of a concentration-inhibition curve) fell in the range of 1000 to 10000 nM. Regarding `CC(COCC(=O)N1CC2CCC(C1)N2c1ccc(C#N)cn1)c1ccccc1` (stereo in doubt) [Example 185, 6-(3-(2-((S)-2-phenylpropoxy)acetyl)-3,8-diazabicyclo[3.2.1]octan-8-yl)nicotinonitrile], the IC50 lay in the range of 100 to 1000 nM.

Take `N#Cc1ccc(N2[C@@H]3CC[C@H]2CN(C(=O)CCNC2(c4ccccc4)CC2)C3)nc1` [Example 2, 6-(3-(3-((1-phenylcyclopropyl)amino)propanoyl)-3,8-diazabicyclo[3.2.1]octan-8-yl)nicotinonitrile]: the IC50 lay in the range of 100 to 1000 nM. With `N#Cc1ccc(N2[C@@H]3CC[C@H]2CN(C(=O)CCNC2(c4cccc(F)c4)CC2)C3)nc1` [Example 4, 6-(3-(3-((1-(3-fluorophenyl)cyclopropyl)amino)propanoyl)-3,8-diazabicyclo[3.2.1]octan-8-yl)nicotinonitrile] the figure was 10 to 100 nM. The same measure for `N#Cc1ccc(N2[C@@H]3CC[C@H]2CN(C(=O)CCNC2(c4ccc(F)cc4)CC2)C3)nc1` [Example 5, 6-(3-(3-((1-(4-fluorophenyl)cyclopropyl)amino)propanoyl)-3,8-diazabicyclo[3.2.1]octan-8-yl)nicotinonitrile]: 10 to 100 nM. The same measure for `C[C@H](NCCC(=O)N1C[C@H]2CC[C@@H](C1)N2c1ccc(C#N)cn1)c1ccc(F)cc1` [Example 6, 6-(3-(3-(((S)-1-(4-fluorophenyl)ethyl)amino)propanoyl)-3,8-diazabicyclo[3.2.1]octan-8-yl)nicotinonitrile]: 1000 to 10000 nM. In the case of `C[C@H](NCCC(=O)N1C[C@H]2CC[C@@H](C1)N2c1ccc(C#N)cn1)c1ccc(F)c(F)c1` [Example 8, 6-(3-(3-(((S)-1-(3,4-difluorophenyl)ethyl)amino)propanoyl)-3,8-diazabicyclo[3.2.1]octan-8-yl)nicotinonitrile], the IC50 is 100 to 1000 nM. With `C[C@H](NCCC(=O)N1C[C@H]2CC[C@@H](C1)N2c1ccc(C#N)cn1)c1ccc(F)cc1F` [Example 9, 6-(3-(3-(((S)-1-(2,4-difluorophenyl)ethyl)amino)propanoyl)-3,8-diazabicyclo[3.2.1]octan-8-yl)nicotinonitrile] the figure was 100 to 1000 nM; with `N#Cc1ccc(N2[C@@H]3CC[C@H]2CN(C(=O)CCNC2(c4ccc(Cl)c(Cl)c4)CC2)C3)nc1` [Example 10, 6-(3-(3-((1-(3,4-dichlorophenyl)cyclopropyl)amino)propanoyl)-3,8-diazabicyclo[3.2.1]octan-8-yl)nicotinonitrile], < 10 nM; with `N#Cc1ccc(N2[C@@H]3CC[C@H]2CN(C(=O)CCNC2(c4ccc(F)c(Br)c4)CC2)C3)nc1` [Example 11, 6-(3-(3-((1-(3-bromo-4-fluorophenyl)cyclopropyl)amino)propanoyl)-3,8-diazabicyclo[3.2.1]octan-8-yl)nicotinonitrile], < 10 nM. Turning to `N#Cc1ccc(N2[C@@H]3CC[C@H]2CN(C(=O)CCNC2(c4cc(Cl)cc(Br)c4)CC2)C3)nc1` [Example 12, 6-(3-(3-((1-(3-bromo-5-chlorophenyl)cyclopropyl)amino)propanoyl)-3,8-diazabicyclo[3.2.1]octan-8-yl)nicotinonitrile], the IC50 fell in the range of 100 to 1000 nM.

With `N#Cc1ccc(N2C3CCC2CN(C(=O)CCNC2(c4cccc(C#N)c4)CC2)C3)nc1` [Example 13, 6-(3-(3-((1-(3-cyanophenyl)cyclopropyl)amino)propanoyl)-3,8-diazabicyclo[3.2.1]octan-8-yl)nicotinonitrile], the concentration for half-maximal inhibition (IC50) fell in the range of 10 to 100 nM. With `N#Cc1ccc(C2(NCCC(=O)N3CC4CCC(C3)N4c3ccc(C#N)cn3)CC2)cc1` [Example 14, 6-(3-(3-((1-(4-cyanophenyl)cyclopropyl)amino)propanoyl)-3,8-diazabicyclo[3.2.1]octan-8-yl)nicotinonitrile] the figure was 1000 to 10000 nM; with `COc1ccccc1C1(NCCC(=O)N2CC3CCC(C2)N3c2ccc(C#N)cn2)CC1` [Example 15, 6-(3-(3-((1-(2-methoxyphenyl)cyclopropyl)amino)propanoyl)-3,8-diazabicyclo[3.2.1]octan-8-yl)nicotinonitrile], 10 to 100 nM; with `COc1cccc(C2(NCCC(=O)N3CC4CCC(C3)N4c3ccc(C#N)cn3)CC2)c1` [Example 16, 6-(3-(3-((1-(3-methoxyphenyl)cyclopropyl)amino)propanoyl)-3,8-diazabicyclo[3.2.1]octan-8-yl)nicotinonitrile], 10 to 100 nM. With `COc1ccc(C2(NCCC(=O)N3CC4CCC(C3)N4c3ccc(C#N)cn3)CC2)cc1` [Example 17, 6-(3-(3-((1-(4-methoxyphenyl)cyclopropyl)amino)propanoyl)-3,8-diazabicyclo[3.2.1]octan-8-yl)nicotinonitrile] the figure was 100 to 1000 nM; with `N#Cc1ccc(N2[C@@H]3CC[C@H]2CN(C(=O)CCNC2(c4ccccn4)CC2)C3)nc1` [Example 18, 6-(3-(3-((1-(pyridin-2-yl)cyclopropyl)amino)propanoyl)-3,8-diazabicyclo[3.2.1]octan-8-yl)nicotinonitrile], 1000 to 10000 nM. In the case of `N#Cc1ccc(N2[C@@H]3CC[C@H]2CN(C(=O)CCNC2(c4cccnc4)CC2)C3)nc1` [Example 19, 6-(3-(3-((1-(pyridin-3-yl)cyclopropyl)amino)propanoyl)-3,8-diazabicyclo[3.2.1]octan-8-yl)nicotinonitrile], the IC50 lay in the range of 100 to 1000 nM. The same measure for `N#Cc1ccc(N2[C@@H]3CC[C@H]2CN(C(=O)CCNC2(c4ncccc4F)CC2)C3)nc1` [Example 20, 6-(3-(3-((1-(3-fluoropyridin-2-yl)cyclopropyl)amino)propanoyl)-3,8-diazabicyclo[3.2.1]octan-8-yl)nicotinonitrile]: 1000 to 10000 nM; for `COc1cc([C@@H](C)NCCC(=O)N2C[C@H]3CC[C@@H](C2)N3c2ccc(C#N)cn2)ccn1` [Example 21, 6-(3-(3-(((R)-1-(2-methoxypyridin-4-yl)ethyl)amino)propanoyl)-3,8-diazabicyclo[3.2.1]octan-8-yl)nicotinonitrile]: 100 to 1000 nM. The same measure for `COc1cc([C@H](C)NCCC(=O)N2C[C@H]3CC[C@@H](C2)N3c2ccc(C#N)cn2)ccn1` [Example 22, 6-(3-(3-(((S)-1-(2-methoxypyridin-4-yl)ethyl)amino)propanoyl)-3,8-diazabicyclo[3.2.1]octan-8-yl)nicotinonitrile]: 1000 to 10000 nM; for `N#Cc1ccc(N2C3CCC2CN(C(=O)CCN2CC(c4ccc(F)cc4)C2)C3)nc1` [Example 24]: > 1000 nM; for `CC(C)(NCCC(=O)N1C[C@H]2CC[C@@H](C1)N2c1ccc(C#N)cn1)c1cccc2ncccc12` [Example 25, 6-(3-(3-((2-(quinolin-5-yl)propan-2-yl)amino)propanoyl)-3,8-diazabicyclo[3.2.1]octan-8-yl)nicotinonitrile]: < 10 nM. For the compound `N#Cc1ccc(N2[C@@H]3CC[C@H]2CN(C(=O)CCNC2(c4ccc(F)cc4F)CC2)C3)nc1` [Example 26, 6-(3-(3-((1-(2,4-difluorophenyl)cyclopropyl)amino)propanoyl)-3,8-diazabicyclo[3.2.1]octan-8-yl)nicotinonitrile], the IC50 is 10 to 100 nM.

On to `N#Cc1ccc(N2[C@@H]3CC[C@H]2CN(C(=O)CCNC2(c4cccc5ncccc45)CC2)C3)nc1` [Example 27, 6-(3-(3-((1-(quinolin-5-yl)cyclopropyl)amino)propanoyl)-3,8-diazabicyclo[3.2.1]octan-8-yl)nicotinonitrile], for which the IC50 was < 10 nM. With `N#Cc1ccc(N2[C@@H]3CC[C@H]2CN(C(=O)CCNC2(c4ccc(F)nc4)CC2)C3)nc1` [Example 28, 6-(3-(3-((1-(6-fluoropyridin-3-yl)cyclopropyl)amino)propanoyl)-3,8-diazabicyclo[3.2.1]octan-8-yl)nicotinonitrile] the figure was < 10 nM; with `N#Cc1ccc(N2[C@@H]3CC[C@H]2CN(C(=O)CCNC2(c4ccc(F)cn4)CC2)C3)nc1` [Example 29, 6-(3-(3-((1-(5-fluoropyridin-2-yl)cyclopropyl)amino)propanoyl)-3,8-diazabicyclo[3.2.1]octan-8-yl)nicotinonitrile], 1000 to 10000 nM. The same measure for `N#Cc1ccc(N2[C@@H]3CC[C@H]2CN(C(=O)CCNC2(c4cncc(F)c4)CC2)C3)nc1` [Example 30, 6-(3-(3-((1-(5-fluoropyridin-3-yl)cyclopropyl)amino)propanoyl)-3,8-diazabicyclo[3.2.1]octan-8-yl)nicotinonitrile]: 100 to 1000 nM. The same measure for `N#Cc1ccc(N2[C@@H]3CC[C@H]2CN(C(=O)CCNC2(c4ncc(F)cc4F)CC2)C3)nc1` [Example 31, 6-(3-(3-((1-(3,5-difluoropyridin-2-yl)cyclopropyl)amino)propanoyl)-3,8-diazabicyclo[3.2.1]octan-8-yl)nicotinonitrile]: 100 to 1000 nM; for `N#Cc1ccc(N2[C@@H]3CC[C@H]2CN(C(=O)CCNC2(c4cccc(F)c4F)CC2)C3)nc1` [Example 32, 6-(3-(3-((1-(2,3-difluorophenyl)cyclopropyl)amino)propanoyl)-3,8-diazabicyclo[3.2.1]octan-8-yl)nicotinonitrile]: 10 to 100 nM.
